Reference: patent US20260098053A1, “COMPOSITIONS AND METHODS FOR TREATING CNS DISORDERS” (SAGE THERAPEUTICS, INC., priority 2019, published 2026)

Target: [35S]-TBPS binding, rat brain cortical membranes
Assay: Steroid inhibition of [35S]-TBPS binding
Conditions: Table 4, 3 nM [35S]-TBPS, in the presence of 5 mM GABA, read-out: TBPS IC50
In short: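 Washed P2 cortical membranes from Sprague-Dawley rats, in 200 mM NaCl/50 mM Na-K phosphate pH 7.4, incubated 90 min at room temp with 3 nM [35S]-TBPS, […] GABA and test drug (0.5% DMSO final). Nonspecific binding defined with […] unlabeled TBPS; filtration and scintillation counting. IC50 and Imax from non-linear curve fits, means±SEM of experiments.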

Row | Compound | IC50
1 | CC[C@@]1(O)CCC[C@@]2(C)[C@@H](CC[C@@H]3[C@@H]2CC[C@]2(C)[C@@H](C(=O)Cn4cc(C#N)cn4)CCC[C@@H]32)C1 [Example 42, 1-(2-((1S,4aS,4bR,6aS,8R,11aS,11bS,13aS)-8-ethyl-8-hydroxy-11a,13a-dimethyloctadecahydro-1H-cyclohepta[a]phenanthren-1-yl)-2-oxoethyl)-1H-pyrazole-4-carbonitrile] | 100 to 1000 nM
2 | C[C@]1(O)CC[C@H]2CC[C@@H]3[C@H](CC[C@]4(C)[C@@H](C(=O)Cn5cc(C#N)cn5)CCC[C@@H]34)[C@H]2CC1 [Example 4, 1-(2-((1S,4aS,4bR,6aR,9S,11aS,11bR,13aS)-9-hydroxy-9,13a-dimethyloctadecahydro-1H-cyclohepta[a]phenanthren-1-yl)-2-oxoethyl)-1H-pyrazole-4-carbonitrile] | 100 to 1000 nM
3 | CC[C@]1(O)CC[C@H]2CC[C@@H]3[C@H](CC[C@]4(C)[C@H](C(=O)Cn5cc(C#N)cn5)CCC[C@@H]34)[C@H]2CC1 [Example 48, 1-(2-((1R,4aS,4bR,6aR,9S,11aS,11bR,13aS)-9-ethyl-9-hydroxy-13a-methyloctadecahydro-1H-cyclohepta[a]phenanthren-1-yl)-2-oxoethyl)-1H-pyrazole-4-carbonitrile] | > 1000 nM
4 | CC[C@@]1(O)CCC[C@H]2[C@H](CC[C@@H]3[C@@H]2CC[C@]2(C)[C@@H](C(C)=O)CCC[C@@H]32)C1 [Example 13, 1-((1S,4aS,4bR,6aR,8R,11aS,11bR,13aS)-8-ethyl-8-hydroxy-13a-methyloctadecahydro-1H-cyclohepta[a]phenanthren-1-yl)ethan-1-one] | 100 to 1000 nM
5 | CC[C@]1(O)CC[C@H]2CC[C@@H]3[C@H](CC[C@]4(C)[C@@H](C(=O)Cn5cc(C#N)cn5)CCC[C@@H]34)[C@H]2CC1 [Example 50] | 100 to 1000 nM
6 | Cc1nnn(CC(=O)[C@H]2CCCC[C@H]3[C@@H]4CC[C@@H]5C[C@](C)(O)CCC[C@]5(C)[C@H]4CC[C@]23C)n1 [Example 62, 1-((1S,5aS,5bR,7aR,9R,12aS,12bS,14aS)-9-hydroxy-9,12a,14a-trimethylicosahydrodicyclohepta[a,f]naphthalen-1-yl)-2-(5-methyl-2H-tetrazol-2-yl)ethanone] | < 100 nM
7 | CC[C@@]1(O)CCC[C@@]2(C)[C@H](CC[C@@H]3[C@@H]2CC[C@]2(C)[C@H](C(=O)Cn4cc(C#N)cn4)CCC[C@@H]32)C1 [Example 39, 1-(2-((1R,4aS,4bR,6aR,8R,11aS,11bS,13aS)-8-ethyl-8-hydroxy-11a,13a-dimethyloctadecahydro-1H-cyclohepta[a]phenanthren-1-yl)-2-oxoethyl)-1H-pyrazole-4-carbonitrile] | > 1000 nM
8 | CC[C@]12CC[C@H]3[C@@H](CC[C@@H]4CC[C@@](O)(COC)CC[C@@H]43)[C@@H]1CC[C@@H]2C(C)=O [Example 32, 1-((1S,3aS,3bR,5aR,8S,10aS,10bR,12aS)-12a-ethyl-8-hydroxy-8-(methoxymethyl)octadecahydrocyclohepta[a]cyclopenta[f]naphthalen-1-yl)ethanone] | 100 to 1000 nM
9 | Cc1nnn(CC(=O)[C@@H]2CCCC[C@H]3[C@@H]4CC[C@@H]5C[C@](C)(O)CCC[C@]5(C)[C@H]4CC[C@]23C)n1 [Example 64] | 100 to 1000 nM
10 | CC[C@]12CC[C@H]3[C@@H](CC[C@@H]4C[C@](C)(O)CCC[C@@]43C)[C@@H]1CC[C@@H]2C(C)=O [Example 29, 1-((1S,3aS,3bR,5aR,7R,10aS,10bS,12aS)-12a-ethyl-7-hydroxy-7,10a-dimethyloctadecahydrocyclohepta[a]cyclopenta[f]naphthalen-1-yl)ethanone] | < 100 nM
11 | CC[C@]12CC[C@H]3[C@@H](CC=C4CC[C@](C)(O)CC[C@@]43C)[C@@H]1CC[C@@H]2C(C)=O [Example 34, 1-((1S,3aS,3bS,8S,10aR,10bS,12aS)-12a-ethyl-8-hydroxy-8,10a-dimethyl-1,2,3,3a,3b,4,6,7,8,9,10,10a,10b,11,12,12a-hexadecahydrocyclohepta[a]cyclopenta[f]naphthalen-1-yl)ethanone] | < 100 nM
12 | CC[C@]1(O)CC[C@H]2CC[C@@H]3[C@H](CC[C@]4(C)[C@H](C(C)=O)CCC[C@@H]34)[C@H]2CC1 [Example 47, 1-((1R,4aS,4bR,6aR,9S,11aS,11bR,13aS)-9-ethyl-9-hydroxy-13a-methyloctadecahydro-1H-cyclohepta[a]phenanthren-1-yl)ethanone] | > 1000 nM
13 | CC[C@]12CC[C@@](C)(O)C[C@H]1CC[C@H]1[C@@H]3CCCC[C@@H](C(=O)Cn4cc(C#N)cn4)[C@@]3(C)CC[C@@H]12 [Example 21] | 100 to 1000 nM
14 | Cc1nnnn1CC(=O)[C@@H]1CCCC[C@H]2[C@@H]3CC[C@@H]4C[C@](C)(O)CCC[C@]4(C)[C@H]3CC[C@]12C [Example 65, 1-((1R,5aS,5bR,7aR,9R,12aS,12bS,14aS)-9-hydroxy-9,12a,14a-trimethylicosahydrodicyclohepta[a,f]naphthalen-1-yl)-2-(5-methyl-1H-tetrazol-1-yl)ethanone] | > 1000 nM
15 | CC[C@]12CC[C@H]3[C@@H](CC[C@@H]4CC[C@](C)(O)CC[C@@H]43)[C@@H]1CC[C@@H]2C(=O)Cn1cc(C#N)cn1 [Example 33] | 100 to 1000 nM
16 | Cc1nnnn1CC(=O)[C@H]1CCCC[C@H]2[C@@H]3CC[C@@H]4C[C@](C)(O)CCC[C@]4(C)[C@H]3CC[C@]12C [Example 63, 1-((1S,5aS,5bR,7aR,9R,12aS,12bS,14aS)-9-hydroxy-9,12a,14a-trimethylicosahydrodicyclohepta[a,f]naphthalen-1-yl)-2-(5-methyl-1H-tetrazol-1-yl)ethanone] | 100 to 1000 nM
17 | CC[C@]12CC[C@@](C)(O)CC[C@H]1CC[C@H]1[C@@H]3CC[C@H](C(C)=O)[C@@]3(C)CC[C@@H]12 [Example 25, 1-((1S,3aS,3bS,5aR,8S,10aS,10bS,12aS)-10a-ethyl-8-hydroxy-8,12a-dimethyloctadecahydrocyclohepta[a]cyclopenta[f]naphthalen-1-yl)ethanone] | 100 to 1000 nM
18 | CC[C@]12CC[C@H]3[C@@H](CC[C@@H]4C[C@](C)(O)CC[C@@H]43)[C@@H]1CCC[C@@H]2C(C)=O [Example 27, 1-((1S,4aS,4bR,6aR,8R,10aS,10bR,12aS)-12a-ethyl-8-hydroxy-8-methyloctadecahydrochrysen-1-yl)ethanone] | < 100 nM

Same assay, conditions: Table 5, 3 nM [35S]-TBPS, in the presence of 5 mM GABA, read-out: TBPS IC50

Row | Compound | IC50
19 | CC[C@]12CC[C@@](C)(O)C[C@H]1CC[C@H]1[C@@H]3CC[C@H](C(=O)Cn4nnc(C)n4)[C@H]3CC[C@@H]12 [Example 83, 1-((3R,5R,8S,9S,10S,13S,14S,17S)-10-ethyl-3-hydroxy-3-methylhexadecahydro-1H-cyclopenta[a]phenanthren-17-yl)-2-(5-methyl-2H-tetrazol-2-yl)ethanone] | < 100 nM
20 | CC(=O)[C@@H]1CC[C@H]2[C@@H]3CC[C@@H]4C[C@](C)(O)CC[C@@H]4[C@H]3CC[C@@H]21 [Example 67, 1-((3R,5R,8R,9R,10S,13S,14S,17R)-3-hydroxy-3-methylhexadecahydro-1H-cyclopenta[a]phenanthren-17-yl)ethan-1-one] | > 1000 nM
21 | Cc1nnnn1CC(=O)[C@H]1CC[C@H]2[C@@H]3CC[C@H]4C[C@](C)(O)CC[C@@H]4[C@H]3CC[C@@H]21 [Example 76, 1-((3R,5S,8R,9R,10S,13S,14S,17S)-3-hydroxy-3-methylhexadecahydro-1H-cyclopenta[a]phenanthren-17-yl)-2-(5-methyl-1H-tetrazol-1-yl)ethanone] | > 1000 nM
22 | C[C@@]1(O)CC[C@H]2[C@H](CC[C@@H]3[C@@H]2CC[C@H]2[C@H]3CC[C@H]2C(=O)Cn2cc(C#N)cn2)C1 (stereo in doubt) [Example 71] | > 1000 nM
23 | CC[C@]12CC[C@@](C)(O)C[C@H]1CC[C@H]1[C@@H]3CC[C@H](C(=O)Cn4nnnc4C)[C@H]3CC[C@@H]12 [Example 82, 1-((3R,5R,8S,9S,10S,13S,14S,17S)-10-ethyl-3-hydroxy-3-methylhexadecahydro-1H-cyclopenta[a]phenanthren-17-yl)-2-(5-methyl-1H-tetrazol-1-yl)ethanone] | < 100 nM

Same assay, conditions: Table 6, 3 nM [35S]-TBPS, in the presence of 5 mM GABA, read-out: IC50

Row | Compound | IC50
24 | CC[C@]12CC[C@H]3[C@@H](CC[C@@H]4C[C@](C)(O)CC[C@@]43C3CC3)[C@@H]1CC[C@@H]2C(=O)Cn1nnc(C)n1 [Example 91, 1-((3R,5R,8S,9S,10R,13S,14S,17S)-10-cyclopropyl-13-ethyl-3-hydroxy-3-methylhexadecahydro-1H-cyclopenta[a]phenanthren-17-yl)-2-(5-methyl-2H-tetrazol-2-yl)ethanone] | < 100 nM
25 | CC[C@]12CC[C@H]3[C@@H](CC[C@@H]4C[C@](C)(O)CC[C@@]43C3CC3)[C@@H]1CC[C@@H]2C(=O)Cn1nnnc1C [Example 92, 1-((3R,5R,8S,9S,10R,13S,14S,17S)-10-cyclopropyl-13-ethyl-3-hydroxy-3-methylhexadecahydro-1H-cyclopenta[a]phenanthren-17-yl)-2-(5-methyl-1H-tetrazol-1-yl)ethanone] | < 100 nM
26 | C[C@@]1(O)CC[C@@]2(C3CC3)[C@H](CC[C@H]3[C@@H]4CCC[C@@H](C(=O)Cn5cc(C#N)cn5)[C@@]4(C)CC[C@@H]32)C1 [Example 86, 1-(2-((1R,4aS,4bS,6aR,8R,10aR,10bS,12aS)-10a-cyclopropyl-8-hydroxy-8,12a-dimethyloctadecahydrochrysen-1-yl)-2-oxoethyl)-1H-pyrazole-4-carbonitrile] | > 1000 nM
